Results filed as inconclusive are left out.
Tested on: B6C3F1 mice, colon carcinoma 38 s.c., T/C
Test: NCI In Vivo Anticancer Drug Screen. Data for tumor model Colon Carcinoma 38 (subcutaneous) in B6C3F1 mice
Settings: endpoint: median tumor weight (est.), higher = larger tumour
Description: The antitumor activity of compounds was measured in mice bearing transplantable tumors. Survival or tumor size were measured and the results are expressed as the measurement made in the treated group (T) divided by the measurement made in the vehicle treated control group (C). The tumor model used in this assay is Colon Carcinoma 38 (subcutaneous) in B6C3F1 mice

[1] = dose: 50.0 mg/kg/injection, schedule: Q07DX002 (ip), vehicle: saline with Tween-80
[2] = dose: 100.0 mg/kg/injection, schedule: Q07DX002 (ip), vehicle: saline with Tween-80
[3] = dose: 200.0 mg/kg/injection, schedule: Q07DX002 (ip), vehicle: saline with Tween-80
[4] = dose: 400.0 mg/kg/injection, schedule: Q07DX002 (ip), vehicle: saline with Tween-80
[5] = dose: 300.0 mg/kg/injection, schedule: Q07DX002 (ip), vehicle: saline
[6] = dose: 600.0 mg/kg/injection, schedule: Q07DX002 (ip), vehicle: saline
[7] = dose: 1200.0 mg/kg/injection, schedule: Q07DX002 (ip), vehicle: saline
[8] = dose: 50.0 mg/kg/injection, schedule: Q07DX002 (ip), vehicle: suspension in saline
[9] = dose: 100.0 mg/kg/injection, schedule: Q07DX002 (ip), vehicle: suspension in saline
[10] = dose: 200.0 mg/kg/injection, schedule: Q07DX002 (ip), vehicle: suspension in saline
[11] = dose: 12.5 mg/kg/injection, schedule: Q07DX002 (ip), vehicle: Klucel (hydroxypropylcellulose) (HPC)
[12] = dose: 25.0 mg/kg/injection, schedule: Q07DX002 (ip), vehicle: Klucel (hydroxypropylcellulose) (HPC)
[13] = dose: 50.0 mg/kg/injection, schedule: Q07DX002 (ip), vehicle: Klucel (hydroxypropylcellulose) (HPC)
[14] = dose: 100.0 mg/kg/injection, schedule: Q07DX002 (ip), vehicle: Klucel (hydroxypropylcellulose) (HPC)
[15] = dose: 200.0 mg/kg/injection, schedule: Q07DX002 (ip), vehicle: Klucel (hydroxypropylcellulose) (HPC)

With `Nc1nc(N)c2cc(S(=O)(=O)c3ccccc3)ccc2n1` as the compound, how does the T/C [1] read?
Its T/C is 62 % of control.

What about the T/C [2] of the same compound?
Its T/C is 45 % of control.

And the T/C [3]?
Its T/C is 44 % of control.

And the T/C [4]?
Its T/C is 24 % of control.

`Nc1ccn(C2OC(CO)C(O)C2O)c(=O)n1` (stereo not drawn) was tested. Which T/C [5] did it give?
The T/C was 70 % of control.

What about the T/C [6] of the same compound?
Its T/C is 90 % of control.

And the T/C [7]?
The T/C was 56 % of control.

And the T/C (dose: 2400.0 mg/kg/injection, schedule: Q07DX002 (ip), vehicle: saline)?
The T/C was 64 % of control.

Which T/C (dose: 75.0 mg/kg/injection, schedule: Q07DX002 (ip), vehicle: saline) does the source give for `O=CC(O)C(O)C(O)C(O)CO` (stereo not drawn) here?
The T/C was 106 % of control.

What about the T/C (dose: 150.0 mg/kg/injection, schedule: Q07DX002 (ip), vehicle: saline) of the same compound?
Its T/C is 79 % of control.

And the T/C [5]?
The T/C was 66 % of control.

And the T/C [6]?
The T/C was 94 % of control.

And the T/C [7]?
Its T/C is 110 % of control.

What does the source list for `O=C(Cc1cccc2c(=O)cc(-c3ccccc3)oc12)OCCN1CCOCC1`?
T/C [8]: 70 % of control; T/C [9]: 49 % of control; T/C [10]: 68 % of control; T/C (dose: 300.0 mg/kg/injection, schedule: Q07DX002 (ip), vehicle: suspension in saline): 17 % of control

How did the T/C (dose: 50.0 mg/kg/injection, schedule: Q01DX006 (ip), vehicle: saline with Tween-80) turn out when `CS(=O)(=O)OCCCCOS(C)(=O)=O` was run?
Its T/C is 16 % of control.

Which T/C (dose: 12.5 mg/kg/injection, schedule: Q07DX002 (ip), vehicle: saline) does the source give for `O=P(O)(NCCCl)NCCCl` here?
The T/C was 52 % of control.

What about the T/C (dose: 25.0 mg/kg/injection, schedule: Q07DX002 (ip), vehicle: saline) of the same compound?
Its T/C is 100 % of control.

And the T/C (dose: 50.0 mg/kg/injection, schedule: Q07DX002 (ip), vehicle: saline)?
Its T/C is 60 % of control.

What does the source list for `COC12C(COC(=O)NCCO)C3=C(C(=O)C(C)=C(N)C3=O)N1CC1NC12` (stereo not drawn)?
T/C [11]: 65 % of control; T/C [12]: 50 % of control; T/C [13]: 12 % of control

How did the T/C [1] turn out when `O=C(C/C(=N\C(=S)Nc1cc(C(F)(F)F)ccc1Cl)NO)N1CCCC1` was run?
Its T/C is 85 % of control.

What about the T/C [2] of the same compound?
The T/C was 57 % of control.

What about the T/C [3] of the same compound?
Its T/C is 70 % of control.

What about the T/C [4] of the same compound?
Its T/C is 100 % of control.

For `O=c1[nH]cnc2nc(/N=N/SCCO)[nH]c12`, which T/C [13] is on record?
Its T/C is 115 % of control.

And the T/C [14]?
The T/C was 114 % of control.

And the T/C [15]?
The T/C was 101 % of control.

Which T/C [8] does the source give for `CCN(CC)CCNc1ccc(C)c2sc3ccccc3c(=O)c12` here?
The T/C was 66 % of control.

What about the T/C [9] of the same compound?
The T/C was 42 % of control.

What about the T/C [10] of the same compound?
Its T/C is 2 % of control.

Which T/C [11] does the source give for `O=C(O)CSc1c(Cl)c(=O)oc2ccc(Cl)cc12` here?
Its T/C is 73 % of control.

What about the T/C [12] of the same compound?
The T/C was 58 % of control.

And the T/C [13]?
The T/C was 57 % of control.

And the T/C [14]?
The T/C was 86 % of control.

And the T/C [15]?
Its T/C is 67 % of control.

How did the T/C (dose: 2.5 mg/kg/injection, schedule: Q07DX002 (ip), vehicle: water) turn out when `COC(=O)NC1C(C)OC(OC2C/C=C(/C)C3C=CC4C(OC5CC(OC6CCC(OC7CC(O)C(OC8CCC(O)C(C)O8)C(C)O7)C(C)O6)C(OC(C)=O)C(C)O5)C(C)CC(C)C4C3(C)/C(O)=C3/C(=O)OC4(CC(C=O)=CC(O)C4/C=C\2C)C3=O)CC1(C)[N+](=O)[O-]` (stereo not drawn) was run?
The T/C was 86 % of control.

And the T/C (dose: 5.0 mg/kg/injection, schedule: Q07DX002 (ip), vehicle: water)?
The T/C was 96 % of control.

And the T/C (dose: 10.0 mg/kg/injection, schedule: Q07DX002 (ip), vehicle: water)?
Its T/C is 89 % of control.

And the T/C (dose: 20.0 mg/kg/injection, schedule: Q07DX002 (ip), vehicle: water)?
Its T/C is 82 % of control.

— PubChem BioAssay AID214 (DTP/NCI, 2004)
